For this assay, the target named is T1, recombinant AKR1C3 (human aldo-keto reductase 1C3) (Homo sapiens, UniProt P42330).
T1 construct: recombinant enzyme
T1 sequence (P42330 1-323): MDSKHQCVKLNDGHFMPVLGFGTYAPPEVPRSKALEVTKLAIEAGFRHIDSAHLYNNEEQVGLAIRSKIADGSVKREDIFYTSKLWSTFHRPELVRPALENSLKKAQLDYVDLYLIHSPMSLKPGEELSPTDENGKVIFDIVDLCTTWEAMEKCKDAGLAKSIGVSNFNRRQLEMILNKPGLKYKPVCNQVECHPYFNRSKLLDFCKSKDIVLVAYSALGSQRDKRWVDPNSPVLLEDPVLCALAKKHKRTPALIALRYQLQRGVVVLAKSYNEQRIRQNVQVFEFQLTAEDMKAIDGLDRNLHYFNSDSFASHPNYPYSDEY
Description: absorbance at […] nm, Michaelis-Menten fit. The note with it: 0.25 mM NAD(P)H, 10 mM Tris-Cl pH 7.0, 4% DMSO. Type of assay: biochemical.

Experimental findings from article PMC8707548, “Restoring Tumour Selectivity of the Bioreductive Prodrug PR-104 by Developing an Analogue Resistant to Aerobic Metabolism by Human Aldo-Keto Reductase 1C3” (Pharmaceuticals, 2021) are described below.

As for `CS(=O)(=O)OCCN(CCBr)c1c(C(=O)NCCO)cc([N+](=O)[O-])cc1[N+](=O)[O-]` [PR-104A], the KM result is recorded as “kinetic parameters calculated for each (D)NBM using the following extinction coefficients: PR-104A”.
